Reference: PMC7374715, “Conservation of Cdc14 phosphatase specificity in plant fungal pathogens: implications for antifungal development” (Scientific Reports, 2020)
Where two headings read alike, the source gives them in different places. Numbered stars: 1 amine (or outer) side, 2 acyl side, 3 side chain; on linkers, the order of the positions; unused ones are H or OH. Square brackets hold non-standard residues; d marks the D form. Ends that are not written are not given here. Peptide text beside a SMILES is read from it. X1 = O=C([C@H](CC(F)(F)P(=O)(O)O)N[*:1])[*:2]; pS = N[C@@H](COP(=O)(O)O)C(=O)O

Tests used:
[1] = biological target: T1, MoCdc14 (Pyricularia oryzae, UniProt G4MRC9); assay: biochemical; set-up: species or system Magnaporthe oryzae
T1 sequence (G4MRC9 1-474 limits assumed): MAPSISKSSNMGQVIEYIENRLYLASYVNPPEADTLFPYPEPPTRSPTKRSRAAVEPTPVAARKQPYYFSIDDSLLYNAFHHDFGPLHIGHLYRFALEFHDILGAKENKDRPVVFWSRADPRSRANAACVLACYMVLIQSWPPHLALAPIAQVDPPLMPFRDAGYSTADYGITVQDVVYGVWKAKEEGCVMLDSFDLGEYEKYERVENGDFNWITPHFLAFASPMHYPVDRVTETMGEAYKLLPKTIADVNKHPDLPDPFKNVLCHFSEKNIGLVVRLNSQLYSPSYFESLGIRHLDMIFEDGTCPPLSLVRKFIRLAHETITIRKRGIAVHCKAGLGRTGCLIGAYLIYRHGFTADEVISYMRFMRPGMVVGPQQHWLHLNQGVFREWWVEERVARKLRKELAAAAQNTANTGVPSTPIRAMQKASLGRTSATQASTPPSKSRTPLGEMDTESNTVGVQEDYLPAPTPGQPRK

[2] = biological target: T2, ScCdc14 (Saccharomyces cerevisiae, UniProt Q00684); assay: Enzyme inhibition, DiFMUP assay; assay type: biochemical
T2 construct: made in house; host or cells: E. coli BL21 AI
T2 sequence (Q00684 1-447 limits assumed): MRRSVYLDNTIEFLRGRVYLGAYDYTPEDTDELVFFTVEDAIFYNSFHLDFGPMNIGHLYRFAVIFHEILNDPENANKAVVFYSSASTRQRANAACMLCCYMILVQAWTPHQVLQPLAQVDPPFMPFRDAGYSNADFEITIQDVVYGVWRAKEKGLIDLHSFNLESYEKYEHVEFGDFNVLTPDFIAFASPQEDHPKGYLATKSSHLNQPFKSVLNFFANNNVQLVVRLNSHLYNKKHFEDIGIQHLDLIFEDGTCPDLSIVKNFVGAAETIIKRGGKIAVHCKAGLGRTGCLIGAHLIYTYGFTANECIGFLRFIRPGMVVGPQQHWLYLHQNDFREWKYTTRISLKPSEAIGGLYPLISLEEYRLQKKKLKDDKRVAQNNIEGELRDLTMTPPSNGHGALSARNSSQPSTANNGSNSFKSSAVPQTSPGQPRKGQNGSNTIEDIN
Text: Measured initial rates were converted to percent activity relative to a reaction lacking pCF2Ser peptide. […] Ki is related to IC50 by the equation Ki = IC50/([S]/KM + 1). Since [S] was equal to KM in our assays, Ki = IC50/2.

[3] = biological target: T1, MoCdc14; assay type: biochemical, Magnaporthe oryzae; conditions: phosphopeptide pS; pH 7.5, 30 °C; Biomol Green; mean of 3 ± SD
[4] = biological target: T3, AnCdc14 (Aspergillus niger, UniProt A2QDS6); assay: MS specificity constant assay; assay type: biochemical; conditions: pooled phosphopeptides 375 nM each, 1 to 1,000 nM Cdc14, pH 7.5, 30 °C; LC-MS; mean of 3 ± SD
T3 sequence (A2QDS6 1-476 limits assumed): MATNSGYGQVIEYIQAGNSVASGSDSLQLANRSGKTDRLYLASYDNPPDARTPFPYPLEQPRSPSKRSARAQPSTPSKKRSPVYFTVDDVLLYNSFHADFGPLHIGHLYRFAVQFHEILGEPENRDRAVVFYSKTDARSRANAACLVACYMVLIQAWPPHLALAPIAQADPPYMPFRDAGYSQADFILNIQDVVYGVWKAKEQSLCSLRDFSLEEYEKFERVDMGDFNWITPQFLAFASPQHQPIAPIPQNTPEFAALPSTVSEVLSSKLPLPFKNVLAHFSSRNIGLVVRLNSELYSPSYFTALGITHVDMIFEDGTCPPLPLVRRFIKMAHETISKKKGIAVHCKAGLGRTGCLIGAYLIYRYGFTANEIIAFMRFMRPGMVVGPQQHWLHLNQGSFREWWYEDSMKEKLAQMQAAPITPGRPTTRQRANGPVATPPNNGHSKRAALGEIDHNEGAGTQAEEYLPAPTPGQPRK

[5] = biological target: T1, MoCdc14; assay type: biochemical, Magnaporthe oryzae; conditions: pooled phosphopeptides 375 nM each, 1 to 1,000 nM Cdc14, pH 7.5, 30 °C; LC-MS; mean of 3 ± SD
[6] = biological target: T3, AnCdc14; assay: Phosphopeptide steady-state kinetics (Biomol Green); assay type: biochemical; conditions: phosphopeptide pS, pH 7.5, 30 °C, mean of 3 ± SD
[7] = biological target: T4, BcCdc14 (Botrytis cinerea, UniProt A0A384J4N9); assay: as above; assay type: biochemical; conditions: phosphopeptide pS, pH 7.5, 30 °C, mean of 3 ± SD
T4 sequence (A0A384J4N9 1-492): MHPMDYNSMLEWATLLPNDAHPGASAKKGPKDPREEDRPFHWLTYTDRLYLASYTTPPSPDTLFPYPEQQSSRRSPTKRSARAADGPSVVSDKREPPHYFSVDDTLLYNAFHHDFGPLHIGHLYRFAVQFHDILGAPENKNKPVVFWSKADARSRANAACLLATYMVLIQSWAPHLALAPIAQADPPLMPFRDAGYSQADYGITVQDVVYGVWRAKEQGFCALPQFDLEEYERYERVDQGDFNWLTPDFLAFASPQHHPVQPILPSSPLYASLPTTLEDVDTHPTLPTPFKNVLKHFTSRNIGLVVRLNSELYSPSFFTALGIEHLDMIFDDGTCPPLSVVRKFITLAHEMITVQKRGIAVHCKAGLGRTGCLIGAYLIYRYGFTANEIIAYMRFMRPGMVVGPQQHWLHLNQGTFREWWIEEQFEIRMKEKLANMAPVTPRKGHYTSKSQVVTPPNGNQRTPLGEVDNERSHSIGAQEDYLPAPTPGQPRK
Experimental: (§1) Activities towards varying concentrations of the synthetic phosphopeptide HT(pSer)PIKSIG (Genscript Corp) were measured in 50 µL assay buffer at 30 °C essentially as described above for pNPP, except substrate consumption was limited to 10% due to limited assay sensitivity and the reaction was stopped with 100 µL Biomol Green (Enzo Life Sciences).

[8] = biological target: T5, RsCdc14 (Rhizoctonia solani, UniProt L8WYM4); assay: as above; assay type: biochemical; conditions: phosphopeptide pS, pH 7.5, 30 °C, mean of 3 ± SD
T5 sequence (L8WYM4 2-162 limits assumed): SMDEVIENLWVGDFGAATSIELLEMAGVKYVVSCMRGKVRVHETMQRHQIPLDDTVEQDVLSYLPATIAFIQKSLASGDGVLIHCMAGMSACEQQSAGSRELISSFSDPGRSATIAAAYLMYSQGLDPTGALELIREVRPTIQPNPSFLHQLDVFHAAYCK
Experimental: as §1

[9] = biological target: T6, CgCdc14 (Colletotrichum gloeosporioides, UniProt A0A8H4CJA2); assay: as above; assay type: biochemical; conditions: phosphopeptide pS, pH 7.5, 30 °C, mean of 3 ± SD
T6 sequence (A0A8H4CJA2 entry or part of it): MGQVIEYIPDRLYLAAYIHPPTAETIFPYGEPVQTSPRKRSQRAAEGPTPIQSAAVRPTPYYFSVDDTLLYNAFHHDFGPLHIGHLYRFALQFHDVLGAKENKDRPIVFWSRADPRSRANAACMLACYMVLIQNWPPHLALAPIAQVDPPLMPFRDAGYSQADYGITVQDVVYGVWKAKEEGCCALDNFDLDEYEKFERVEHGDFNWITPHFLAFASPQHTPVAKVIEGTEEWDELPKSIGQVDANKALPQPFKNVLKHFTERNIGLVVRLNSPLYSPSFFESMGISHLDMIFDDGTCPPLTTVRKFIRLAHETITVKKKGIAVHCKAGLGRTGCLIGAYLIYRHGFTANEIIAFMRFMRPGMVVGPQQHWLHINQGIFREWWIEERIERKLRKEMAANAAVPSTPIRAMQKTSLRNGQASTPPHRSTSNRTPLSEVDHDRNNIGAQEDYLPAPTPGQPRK
Experimental: as §1

[10] = biological target: T2, ScCdc14; assay: as above; assay type: biochemical; conditions: phosphopeptide pS, pH 7.5, 30 °C, mean of 3 ± SD
Experimental: as §1

[11] = tested on: UmCdc14; assay: MS specificity constant assay; assay type: biochemical, Ustilago maydis; conditions: pooled phosphopeptides 375 nM each, 1 to 1,000 nM Cdc14, pH 7.5, 30 °C; LC-MS; mean of 3 ± SD
Text: (§2) Our primary interest was the conservation of substrate specificity. To define the specificities of the eight fungal pathogen Cdc14 homologs and compare them to the well-characterized ScCdc14, we developed a new assay that uses mass spectrometry (MS) to measure the specificity constant, kcat/KM, for a collection of synthetic phosphopeptide substrates (Fig. 3a). This assay, based on a similar assay for measuring protease specificity, is more sensitive and has a much broader linear dynamic range (Fig. 3b) than the conventional malachite green colorimetric assay used to generate the phosphopeptide data in Table 1. These advantages made it convenient for measuring Cdc14 activity towards substrates whose specificity constants can vary by several orders of magnitude. The assay also increases throughput by allowing simultaneous measurement of kcat/KM for many different substrates. The peptides were based on the Yen1 Ser583 sequence with variations designed to test the importance of the four known ScCdc14 substrate recognition features (phosphoamino acid identity, + 1 Pro, + 3 Lys/Arg, Lys/Arg near + 3). Measurements were made by integrating MS chromatogram peak areas for the phosphorylated and dephosphorylated peptide species after Cdc14 treatment and using those values to calculate the fraction of substrate consumed (Fig. 3c; see “Methods” for details). […]

[12] = tested on: CzCdc14; assay: MS specificity constant assay; assay type: biochemical, Cercospora zeina; conditions: pooled phosphopeptides 375 nM each, 1 to 1,000 nM Cdc14, pH 7.5, 30 °C; LC-MS; mean of 3 ± SD
Text: as §2

[13] = biological target: T5, RsCdc14; assay: MS specificity constant assay; assay type: biochemical; conditions: pooled phosphopeptides 375 nM each, 1 to 1,000 nM Cdc14, pH 7.5, 30 °C; LC-MS; mean of 3 ± SD
[14] = tested on: CzCdc14; assay: Phosphopeptide steady-state kinetics (Biomol Green); assay type: biochemical, Cercospora zeina; conditions: phosphopeptide pS, pH 7.5, 30 °C, mean of 3 ± SD
Experimental: as §1

[15] = tested on: all Cdc14 homologs; assay: MS specificity constant assay, all homologs compared; assay type: biochemical
Text: as §2

[16] = biological target: T4, BcCdc14; assay: MS specificity constant assay; assay type: biochemical; conditions: pooled phosphopeptides 375 nM each, 1 to 1,000 nM Cdc14, pH 7.5, 30 °C; LC-MS; mean of 3 ± SD
Text: (§3) Our primary interest was the conservation of substrate specificity. To define the specificities of the eight fungal pathogen Cdc14 homologs and compare them to the well-characterized ScCdc14, we developed a new assay that uses mass spectrometry (MS) to measure the specificity constant, kcat/KM, for a collection of synthetic phosphopeptide substrates (Fig. 3a). This assay, based on a similar assay for measuring protease specificity, is more sensitive and has a much broader linear dynamic range (Fig. 3b) than the conventional malachite green colorimetric assay used to generate the phosphopeptide data in Table 1. These advantages made it convenient for measuring Cdc14 activity towards substrates whose specificity constants can vary by several orders of magnitude. The assay also increases throughput by allowing simultaneous measurement of kcat/KM for many different substrates. The peptides were based on the Yen1 Ser583 sequence with variations designed to test the importance of the four known ScCdc14 substrate recognition features (phosphoamino acid identity, + 1 Pro, + 3 Lys/Arg, Lys/Arg near + 3). Measurements were made by integrating MS chromatogram peak areas for the phosphorylated and dephosphorylated peptide species after Cdc14 treatment and using those values to calculate the fraction of substrate consumed (Fig. 3c; see “Methods” for details). […] Results from this assay were in reasonably good agreement with conventional steady-state kinetic measurements of kcat and KM using a malachite green spectroscopic assay (compare substrate pS in Tables 1 and 2), although the MS assay consistently yielded kcat/KM ~ three to fivefold higher, likely due to sensitivity limitations of the malachite green assay with high affinity substrates.
(§4) kcat/KM measurements can be made on pooled substrate mixtures for characterizing enzymatic specificity, provided substrate concentrations are far below KM[38]. Mass spectrometry is a useful tool for monitoring reaction progress in such mixtures, as long as each substrate and product has a unique mass. […]

[17] = biological target: T6, CgCdc14; assay: MS specificity constant assay; assay type: biochemical; conditions: pooled phosphopeptides 375 nM each, 1 to 1,000 nM Cdc14, pH 7.5, 30 °C; LC-MS; mean of 3 ± SD
Text: as §3, §4

[18] = biological target: T2, ScCdc14; assay: MS specificity constant assay; assay type: biochemical; conditions: pooled phosphopeptides 375 nM each, 1 to 1,000 nM Cdc14, pH 7.5, 30 °C; LC-MS; mean of 3 ± SD
Text: as §3, §4

[19] = biological target: T1, MoCdc14; conditions: pNPP; 25 mM HEPES pH 7.5, 30 °C; mean of 3 ± SD
[20] = tested on: CzCdc14; assay type: biochemical, Cercospora zeina; conditions: pNPP; 25 mM HEPES pH 7.5, 30 °C; mean of 3 ± SD
Experimental: Activities towards varying concentrations of para-nitrophenyl phosphate (pNPP) were measured in 100 µL assay buffer (25 mM HEPES pH 7.5, 2 mM TCEP, 1 mM EDTA, and 150 mM NaCl) at 30 °C. Enzyme concentrations were chosen to achieve absorbance values within the linear response range while satisfying the steady-state assumption where substrate consumption was < 1%. Reactions were initiated by enzyme addition and stopped with 1 N NaOH. Absorbance at 405 nm was measured on a Synergy H1 microplate reader (BioTek) and converted to product concentration using a para-nitrophenol standard curve. Initial rates were plotted as a function of substrate concentration and fit with the Michealis-Menten equation in GraphPad Prism (Version 8) to determine kcat and KM.

[21] = tested on: CzCdc14; conditions: DiFMUP; 0.5 nM enzyme, pH 7.5, 30 °C; mean of 3 ± SD
Experimental: All enzyme concentrations were 0.5 nM, except for PsCdc14 and VHR, which were assayed at 2 and 5 nM, respectively. Fluorescence intensity was measured continuously on a Synergy H1 microplate reader (BioTek) with excitation and emission wavelengths set at 358 and 450 nm, respectively. Fluorescence intensity was converted to product concentration using a 6,8-difluoro-4-methylumbelliferone standard curve. Background fluorescence was subtracted from each reaction and initial rates were calculated from the slope of the linear portion of the product concentration versus time plots. kcat and KM were calculated as described above.

[22] = biological target: T1, MoCdc14; conditions: DiFMUP; 0.5 nM enzyme, pH 7.5, 30 °C; mean of 3 ± SD

Compound: CC(C)[C@H](NC(=O)[C@@H](N)CCC(=O)O)C(=O)N[C@@H](CC(F)(F)P(=O)(O)O)C(=O)N1CCC[C@H]1C(=O)N[C@H](C(=O)N[C@@H](CCCCN)C(=O)N[C@@H](CCCNC(=N)N)C(N)=O)[C@@H](C)O [pCF2Ser peptide, Glu-Val-pCF2Ser-Pro-Thr-Lys-Arg-amide] (H-EV[X1]PTKR-NH2)
- Ki [1]: 3.4 ± 1.2 µM
- Ki [2]: 3.2 ± 1 µM

Compound: HT[pS]PIKSIG
- Km [3]: 63 ± 19 µM
- kcat [3]: 0.4 ± 0.02 s⁻¹
- kcat/KM [3]: 6,200 ± 1,700 M^−1 s^−1
- specificity constant kcat/KM [4]: 25,200 ± 2,200 M^−1 s^−1
- specificity constant kcat/KM [5]: 17,000 ± 2,500 M^−1 s^−1
- Km [6]: 194 ± 44 µM
- kcat [6]: 1.0 ± 0.1 s⁻¹
- kcat/KM [6]: 5,100 ± 800 M^−1 s^−1
- Km [7]: 297 ± 38 µM
- kcat/KM [7]: 3,400 ± 300 M^−1 s^−1
- Km [8]: 178 ± 52 µM
- kcat [8]: 0.52 ± 0.07 s⁻¹
- kcat/KM [8]: 3,000 ± 600 M^−1 s^−1
- Km [9]: 351 ± 21 µM
- kcat [9]: 2.2 ± 0.1 s⁻¹
- kcat/KM [9]: 6,200 ± 200 M^−1 s^−1
- kcat ([10]; 640 nm): 1.4 ± 0.1 s⁻¹
- Km [10]: 173 ± 21 µM
- kcat/KM [10]: 7,800 ± 300 M^−1 s^−1
- specificity constant kcat/KM [11]: 12,900 ± 3,300 M^−1 s^−1
- specificity constant kcat/KM [12]: 110,800 ± 10,600 M^−1 s^−1
- specificity constant kcat/KM [13]: 17,300 ± 1,500 M^−1 s^−1
- Km [14]: 62 ± 14 µM
- kcat [14]: 2.1 ± 0.1 s⁻¹
- kcat/KM [14]: 34,000 ± 8,000 M^−1 s^−1
- kcat/KM of pSer-containing peptide higher than pThr-containing peptide [15]: > 1,000 fold
- kcat/KM of pSer-containing peptide higher than pTyr-containing peptide [15]: > 100 fold
- specificity constant kcat/KM [16]: 15,700 ± 1,200 M^−1 s^−1
- specificity constant kcat/KM [17]: 19,400 ± 1,800 M^−1 s^−1
- specificity constant kcat/KM [18]: 21,100 ± 1,400 M^−1 s^−1

Compound: O=[N+]([O-])c1ccc(OP(=O)(O)O)cc1 [pNPP, para-nitrophenyl phosphate]
- kcat [19]: 1.02 ± 0.03 s⁻¹
- kcat/KM [19]: 40 ± 2 M⁻¹ s⁻¹
- Km [20]: 25000 ± 2000 µM
- kcat [20]: 2.8 ± 0.1 s⁻¹
- kcat/KM [20]: 115 ± 6 M⁻¹ s⁻¹

Compound: Cc1cc(=O)oc2c(F)c(OP(=O)(O)O)c(F)cc12 [DiFMUP]
- Km [21]: 66 ± 11 µM
- kcat [21]: 31 ± 2 s⁻¹
- kcat/KM [21]: 477,000 ± 10,600 M^−1 s^−1
- kcat [22]: 3 ± 0.5 s⁻¹
- kcat/KM [22]: 68,000 ± 6,100 M^−1 s^−1
